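96-well plates; 48 h exposure; 5 concentrations. Endpoints by linear interpolation between flanking doses. Not reached: highest tested concentration assigned. GI50 marks 50% less growth.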 Calls of active or inactive are those of the source. No stated cut-off is given here; in the data, active = GI50 up to about 1.1 µM and inactive = higher.
Assays:
Test in all cases: inhibition of tumour cell growth, NCI panel, 48 h
A549 = system: A549
CAKI-1 = system: CAKI-1
DU-145 = system: DU-145
HCC 2998 = system: HCC 2998
HCT-116 = system: HCT-116
HCT-15 = system: HCT-15
HT-29 = system: HT-29
Hs-578T = system: Hs-578T
K562 = system: K562
LOX IMVI = system: LOX IMVI
M14 = system: M14
NCI/ADR-RES = system: NCI/ADR-RES
OVCAR-4 = system: OVCAR-4
OVCAR-8 = system: OVCAR-8
RPMI-8226 = system: RPMI-8226
RXF 393 = system: RXF 393
SF-268 = system: SF-268
SK-MEL-2 = system: SK-MEL-2
SNB-75 = system: SNB-75
UACC-257 = system: UACC-257

| Compound | GI50 (A549) | GI50 (CAKI-1) | GI50 (DU-145) | GI50 (HCC 2998) | GI50 (HCT-116) | GI50 (HCT-15) [µM] | GI50 (HT-29) | GI50 (Hs-578T) | GI50 (K562) | GI50 (LOX IMVI) | GI50 (M14) | GI50 (NCI/ADR-RES) | GI50 (OVCAR-4) | GI50 (OVCAR-8) | GI50 (RPMI-8226) | GI50 (RXF 393) | GI50 (SF-268) | GI50 (SK-MEL-2) | GI50 (SNB-75) | GI50 (UACC-257) |
| --- | --- | --- | --- | --- | --- | --- | --- | --- | --- | --- | --- | --- | --- | --- | --- | --- | --- | --- | --- | --- |
| Cc1nnc2cc(C(=O)O)c3ccccc3n2c1=O | > 10 µM (inactive) | > 10 µM (inactive) | > 10 µM (inactive) | > 10 µM (inactive) | > 10 µM (inactive) | > 10 | > 10 µM (inactive) | > 10 µM (inactive) | > 10 µM (inactive) | > 10 µM (inactive) | > 10 µM (inactive) | > 10 µM (inactive) | > 10 µM (inactive) | > 10 µM (inactive) | > 10 µM (inactive) | > 10 µM (inactive) | > 10 µM (inactive) | > 10 µM (inactive) | 2.55 µM (inactive) | > 10 µM (inactive) |
| Cc1ccc([S+]([O-])(=Nc2ccccc2)C(C(C)C)C(C)(C)Cl)cc1 (stereo not drawn) | 16.2 µM (inactive) | 14.5 µM (inactive) | > 50 µM (inactive) | 21.6 µM (inactive) | 16.9 µM (inactive) | 17 | 17.1 µM (inactive) | 29.6 µM (inactive) | 16.7 µM (inactive) | 25.2 µM (inactive) | 18.9 µM (inactive) | 15 µM (inactive) | 22.2 µM (inactive) | > 50 µM (inactive) | 14 µM (inactive) | 30.1 µM (inactive) | 44.4 µM (inactive) | 12.5 µM (inactive) | > 50 µM (inactive) | 10.8 µM (inactive) |
| Clc1ccc(-c2cc3nc4ccccc4nc3o2)cc1 | > 100 µM (inactive) | > 100 µM (inactive) | > 100 µM (inactive) | > 100 µM (inactive) | > 100 µM (inactive) | > 100 | > 100 µM (inactive) | 15.7 µM (inactive) | > 100 µM (inactive) | > 100 µM (inactive) | > 100 µM (inactive) | 52.5 µM (inactive) | > 100 µM (inactive) | 32.6 µM (inactive) | > 100 µM (inactive) | 32.5 µM (inactive) | 63.8 µM (inactive) | > 100 µM (inactive) | 15.3 µM (inactive) | 34.8 µM (inactive) |
| NCCNc1nc(N2CCCC2)c2nc(Cl)c(NCc3ccccc3)nc2n1 | 1.71 µM (inactive) | 5.27 µM (inactive) | 1.61 µM (inactive) | 1.51 µM (inactive) | 1.49 µM (inactive) | 1.95 | 1.95 µM (inactive) | 2.53 µM (inactive) | 0.122 µM (active) | 1.56 µM (inactive) | 1.67 µM (inactive) | 13.6 µM (inactive) | 2.16 µM (inactive) | 1.76 µM (inactive) | 1.88 µM (inactive) | 1.4 µM (inactive) | 1.96 µM (inactive) | 1.79 µM (inactive) | 1.72 µM (inactive) | 1.9 µM (inactive) |
| CC(C(=O)[O-])S(=O)(=O)O.CCc1c2cc(OC)c(OC)cc2cc2c3cc(OC)c(OC)cc3cc[n+]12 | 47.4 µM (inactive) | 60.4 µM (inactive) | 14.2 µM (inactive) | 15 µM (inactive) | 17.8 µM (inactive) | 38.4 | 45.2 µM (inactive) | 4.81 µM (inactive) | 7.57 µM (inactive) | 27.5 µM (inactive) | 51.1 µM (inactive) | 38.1 µM (inactive) | 10.2 µM (inactive) | 20 µM (inactive) | 25.8 µM (inactive) | 65.2 µM (inactive) | 1.11 µM (active) | 25.6 µM (inactive) | 7.94 µM (inactive) | 13.3 µM (inactive) |
| O=C(CNS(=O)(=O)Cc1ccccc1)NNc1ccccc1 | > 100 µM (inactive) | 5.6 µM (inactive) | > 100 µM (inactive) | > 100 µM (inactive) | > 100 µM (inactive) | > 100 | > 100 µM (inactive) | > 100 µM (inactive) | 2.5 µM (inactive) | 1.85 µM (inactive) | > 63.7 µM (inactive) | > 100 µM (inactive) | > 100 µM (inactive) | > 100 µM (inactive) | 18.4 µM (inactive) | > 100 µM (inactive) | > 100 µM (inactive) | > 30 µM (inactive) | > 36.6 µM (inactive) | > 78.2 µM (inactive) |
| O=[N+]([O-])c1cccc2nc3ccccc3c(NCCC[N+]3([O-])CCCCC3)c12 | 0.521 µM (active) | 20 µM (inactive) | 0.35 µM (active) | 0.136 µM (active) | 0.261 µM (active) | 16 | 0.301 µM (active) | 0.82 µM (active) | 1.1 µM (active) | 0.46 µM (active) | 1.2 µM (inactive) | > 100 µM (inactive) | 0.315 µM (active) | 1.85 µM (inactive) | 0.308 µM (active) | 0.647 µM (active) | 0.323 µM (active) | 0.179 µM (active) | 0.416 µM (active) | 0.244 µM (active) |
| Cc1ccc(N2C(=O)CC(=O)N(NC(=O)C(C)Oc3ccccc3C)C2=S)cc1 (stereo not drawn) | > 100 µM (inactive) | > 100 µM (inactive) | > 100 µM (inactive) | > 100 µM (inactive) | > 100 µM (inactive) | > 100 | > 100 µM (inactive) | > 100 µM (inactive) | 65.9 µM (inactive) | 70.6 µM (inactive) | > 100 µM (inactive) | > 100 µM (inactive) | > 100 µM (inactive) | > 100 µM (inactive) | > 100 µM (inactive) | > 100 µM (inactive) | > 100 µM (inactive) | > 100 µM (inactive) | > 100 µM (inactive) | > 100 µM (inactive) |
| Sc1nn2c(COc3cc(Cl)c(OCc4nnc5sc(S)nn45)cc3Cl)nnc2s1 | > 100 µM (inactive) | > 100 µM (inactive) | 78.3 µM (inactive) | 36.1 µM (inactive) | 46 µM (inactive) | 33.1 | 43.3 µM (inactive) | > 100 µM (inactive) | 33.7 µM (inactive) | 32.8 µM (inactive) | > 100 µM (inactive) | > 100 µM (inactive) | 51.8 µM (inactive) | 88.5 µM (inactive) | 32.4 µM (inactive) | 39.2 µM (inactive) | 44.6 µM (inactive) | > 100 µM (inactive) | 82 µM (inactive) | > 100 µM (inactive) |
| C[C@@H](CC(O)C(O)C(C)(C)O)C1CCC23CC12CCC1[C@@]2(C)CCC(O)C(C)(C)C2CC(OC2OC(CO)C(O)C(O)C2O)[C@]13C (stereo partly drawn) | > 10 µM (inactive) | > 10 µM (inactive) | > 10 µM (inactive) | > 10 µM (inactive) | > 10 µM (inactive) | > 10 | > 10 µM (inactive) | > 10 µM (inactive) | > 10 µM (inactive) | > 10 µM (inactive) | > 10 µM (inactive) | > 10 µM (inactive) | > 10 µM (inactive) | > 10 µM (inactive) | > 10 µM (inactive) | > 10 µM (inactive) | > 10 µM (inactive) | > 10 µM (inactive) | > 10 µM (inactive) | > 10 µM (inactive) |
| c1cnc(N2CCN(Cc3c[nH]c4ccccc34)CC2)nc1 | 80.4 µM (inactive) | 28.2 µM (inactive) | 23.9 µM (inactive) | 18.6 µM (inactive) | 26.2 µM (inactive) | 72.9 | 56.6 µM (inactive) | > 100 µM (inactive) | 40 µM (inactive) | 45.8 µM (inactive) | 45.4 µM (inactive) | 52.8 µM (inactive) | 52 µM (inactive) | 95.9 µM (inactive) | 11.7 µM (inactive) | 41.9 µM (inactive) | 74.5 µM (inactive) | 13.3 µM (inactive) | 89.9 µM (inactive) | 28.8 µM (inactive) |
| O=c1c2c3c(sc2nc2n1N=CN(c1ccc(Cl)cc1)C2)CCCC3 | 38.4 µM (inactive) | 23.8 µM (inactive) | 21.3 µM (inactive) | 2.26 µM (inactive) | 26.9 µM (inactive) | 19.7 | 19.5 µM (inactive) | 3.93 µM (inactive) | 19.3 µM (inactive) | 36.3 µM (inactive) | > 100 µM (inactive) | 74.8 µM (inactive) | 52.6 µM (inactive) | 83.8 µM (inactive) | 46.8 µM (inactive) | 12.3 µM (inactive) | 20.8 µM (inactive) | 43.2 µM (inactive) | 24.7 µM (inactive) | 55.7 µM (inactive) |
| COc1ccc(N2C(=O)C3CC4=CC(=O)C[C@H]4[C@H]32)cc1 (stereo partly drawn) | > 100 µM (inactive) | 23.4 µM (inactive) | 75.9 µM (inactive) | 45.1 µM (inactive) | 20.7 µM (inactive) | 40.9 | – | > 100 µM (inactive) | 64.9 µM (inactive) | 53.1 µM (inactive) | > 100 µM (inactive) | 44.1 µM (inactive) | > 100 µM (inactive) | 49.4 µM (inactive) | 59.8 µM (inactive) | 82 µM (inactive) | > 100 µM (inactive) | > 100 µM (inactive) | 93.5 µM (inactive) | 64.9 µM (inactive) |
| CCN(CC)C1C(=O)NC1C#Cc1ccccc1 (stereo not drawn) | – | 38.4 µM (inactive) | > 100 µM (inactive) | > 100 µM (inactive) | > 100 µM (inactive) | 96.6 | 48 µM (inactive) | > 100 µM (inactive) | 42.3 µM (inactive) | 39.7 µM (inactive) | > 100 µM (inactive) | > 100 µM (inactive) | > 100 µM (inactive) | > 100 µM (inactive) | 76.7 µM (inactive) | > 100 µM (inactive) | > 100 µM (inactive) | > 100 µM (inactive) | > 100 µM (inactive) | > 100 µM (inactive) |

— ChEMBL document CHEMBL1201862, “PubChem BioAssay data set” (2004)
